Laboratory results reported in US20240115557A1, “INHIBITORS OF RNA-GUIDED NUCLEASES AND USES THEREOF” (The Brigham and Women's Hospital, Inc., priority 2022, published 2024).

Target: SpCas9 (Streptococcus pyogenes serotype M1, UniProt Q99ZW2)
Experiment: eGFP disruption assay, SpCas9, U2OS.eGFP.PEST cells
Type: cell-based
Details: for Normalized Z rep1 / Z score Rep1: replicate 1; for SpCas9 eGFP disruption Rep1: replicate 1, raw readout; for Normalized Z rep2 / Z socre Rep2: replicate 2; for SpCas9 eGFP disruption Rep2: replicate 2, raw readout
Description: In some embodiments, the secondary assay may be an EGFP disruption assay. In such assay, a quantitative human cell-based reporter assay that enables rapid quantitation of targeted nuclease activities is used to characterize off-target cleavage of Cas9-based RNA guided endonucleases. In this assay, the activities of nucleases targeted to a single integrated EGFP reporter gene can be quantified by assessing loss of fluorescence signal in human U2OS.EGFP cells caused by inactivating frameshift insertion/deletion (indel) mutations introduced by error prone non-homologous end-joining (NHEJ) repair of nuclease-induced double-stranded breaks (DSBs).
In one protocol, U2OS.EGFP cells harboring a single integrated copy of an EGFP-PEST fusion gene are cultured (see e.g., Reyon et al., Nat Biotech 30, 460-465 (2012), which is herein incorporated by reference in its entirety). For transfections, 200,000 cells are Nucleofected with gRNA expression plasmid and pJDS246 together with 30 ng of a Td-tomato-encoding plasmid using the SE Cell Line 4D-Nucleofector™ X Kit (Lonza) according to the manufacturer's protocol. Cells are analyzed 2 days post-transfection using a BD LSRII flow cytometer. Transfections for optimizing gRNA/Cas9 plasmid concentration are performed in triplicate and all other transfections are performed in duplicate. PCR amplification is used for sequence verification of endogenous human genomic sites. PCR reactions are performed using Phusion Hot Start II high-fidelity DNA polymerase (NEB). Loci are amplified using touchdown PCR (98° C., 10 s; 72-62° C., −1° C./cycle, 15s; 72° C., 30 s] 10 cycles, [98° C., 10s; 62° C., 15s; 72° C., 30 s] 25 cycles). Alternatively, PCR for other targets is performed with 35 cycles at a constant annealing temperature of 68° C. or 72° C., and 3% DMSO or IM betaine, if necessary. PCR products are analyzed on a QIAXCEL capillary electrophoresis system to verify both size and purity. Validated products are treated with ExoSap-IT (Affymetrix) and sequenced by the Sanger method (MGH DNA Sequencing Core) to verify each target site.
Primary and secondary screening. The primary screen assayed a selection of unique chemical scaffolds derived from commercially available compounds and known bioactive molecular libraries (Table 7). Auto-fluorescent compounds were removed by a counter screen. Overall, the CAA was used to assay 122,409 small molecules with over 2,500 unique chemical scaffolds (FIG. 64F, Table 7). Of these compounds, 547 were selected as hits (Z score >3 in both replicates) for testing in orthogonal cell-based secondary assays. Hits were tested in duplicate in an eGFP disruption assay, wherein U2OS.eGFP.PEST cells^33 transfected with SpCas9 plasmid and eGFP-targeting gRNA plasmid were incubated with 20 μM of the compounds. In this assay, any compound that inhibited SpCas9 would rescue the loss of eGFP fluorescence. Here, toxic and auto-fluorescent compounds with a high GFP signal in cells were removed as false positives. […] Next, Applicants tested the 15 compounds in a luminescence-based gain-of-signal HiBiT knock-in assay, which involves SpCas9-mediated homology-directed tagging of GAPDH with a short peptide that luminesces upon complementation with a subunit derived from nanoluciferase.^34 Complementarily, the eGFP-disruption assay is fluorescence-based and involves error-prone DNA repair. As a counter-screen to remove false positives caused by cell death (viability <80%), the cell viability was measured after incubation.
For SAR studies and dose-response studies, 300,000 U2OS.eGFP.PEST cells were nucleofected with 300 ng of SpCas9 plasmid (Addgene #43861) and 30 ng of eGFP-targeting gRNA plasmid (Addgene #47511)^33 using SE Cell Line 4D-Nucleofector X Kit (Lonza) following the pulse program of DN-100. For RNP-based genome editing, 10 pmol of SpCas9 (GenScript #Z03385) and 12 pmol of gRNA were mixed and incubated for 5 min. […]

[1] = Cas9 = lower control, Ctrl = upper control
[2] = normalized, lower control about 0, upper control about 1

Sequence of SpCas9 (Q99ZW2 whole entry): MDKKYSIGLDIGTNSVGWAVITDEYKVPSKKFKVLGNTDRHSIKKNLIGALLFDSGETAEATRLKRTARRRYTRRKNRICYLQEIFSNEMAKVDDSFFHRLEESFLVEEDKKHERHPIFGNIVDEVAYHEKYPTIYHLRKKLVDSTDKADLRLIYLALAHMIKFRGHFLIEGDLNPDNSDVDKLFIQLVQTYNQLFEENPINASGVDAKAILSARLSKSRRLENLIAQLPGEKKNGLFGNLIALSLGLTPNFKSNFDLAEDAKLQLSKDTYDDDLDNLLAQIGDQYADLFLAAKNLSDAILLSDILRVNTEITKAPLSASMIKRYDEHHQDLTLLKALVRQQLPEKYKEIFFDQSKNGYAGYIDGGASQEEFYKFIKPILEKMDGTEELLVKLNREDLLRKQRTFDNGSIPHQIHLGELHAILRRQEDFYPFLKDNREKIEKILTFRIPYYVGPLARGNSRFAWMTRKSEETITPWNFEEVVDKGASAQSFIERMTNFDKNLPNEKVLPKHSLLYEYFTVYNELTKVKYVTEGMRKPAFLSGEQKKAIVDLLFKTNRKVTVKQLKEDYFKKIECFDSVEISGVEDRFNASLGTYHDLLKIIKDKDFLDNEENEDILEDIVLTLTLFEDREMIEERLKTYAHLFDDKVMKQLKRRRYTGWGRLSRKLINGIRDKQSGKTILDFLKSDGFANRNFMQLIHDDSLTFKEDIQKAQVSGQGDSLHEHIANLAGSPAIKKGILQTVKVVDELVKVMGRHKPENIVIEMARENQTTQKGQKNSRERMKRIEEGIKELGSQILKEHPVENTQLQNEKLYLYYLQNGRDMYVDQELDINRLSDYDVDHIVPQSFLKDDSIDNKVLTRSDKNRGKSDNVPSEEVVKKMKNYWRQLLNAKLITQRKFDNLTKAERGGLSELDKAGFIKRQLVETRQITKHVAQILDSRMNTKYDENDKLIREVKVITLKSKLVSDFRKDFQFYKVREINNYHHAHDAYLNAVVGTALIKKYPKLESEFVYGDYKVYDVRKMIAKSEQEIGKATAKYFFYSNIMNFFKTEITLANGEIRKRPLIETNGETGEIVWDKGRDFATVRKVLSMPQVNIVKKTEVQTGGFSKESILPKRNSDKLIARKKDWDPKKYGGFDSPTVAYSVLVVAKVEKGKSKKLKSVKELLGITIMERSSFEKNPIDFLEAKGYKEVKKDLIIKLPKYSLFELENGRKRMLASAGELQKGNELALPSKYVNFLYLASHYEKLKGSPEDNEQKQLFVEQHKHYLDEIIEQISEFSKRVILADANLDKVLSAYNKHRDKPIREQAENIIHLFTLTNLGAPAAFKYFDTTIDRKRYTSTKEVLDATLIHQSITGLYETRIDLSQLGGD

COc1ccc(-c2nnc3sc(-c4cccnc4)nn23)cc1OC [Compound D727-0025]
Normalized Z rep1: −0.28
Z score Rep1: −2.04
SpCas9 eGFP disruption Rep1: 60.269
Normalized Z rep2: −0.11
Z socre Rep2: −1.05
SpCas9 eGFP disruption Rep2: 59.908

Cc1ccc(-c2nn3c(-c4cccnc4)nnc3s2)cc1 [Compound D727-0047]
Normalized Z rep1: −0.34
Z score Rep1: −2.47
SpCas9 eGFP disruption Rep1: 58.846
Normalized Z rep2: −0.29
Z socre Rep2: −2.72
SpCas9 eGFP disruption Rep2: 54.891

Brc1cccc(-c2nn3c(-c4cccnc4)nnc3s2)c1 [Compound D727-0051]
Normalized Z rep1: 0.02
Z score Rep1: 0.13
SpCas9 eGFP disruption Rep1: 67.429
Normalized Z rep2: 0.08
Z socre Rep2: 0.79
SpCas9 eGFP disruption Rep2: 65.459

c1cncc(-c2nnc3sc(Cc4ccc5c(c4)OCCO5)nn23)c1 [Compound D727-0088]
Normalized Z rep1: −0.24
Z score Rep1: −1.77
SpCas9 eGFP disruption Rep1: 61.161
Normalized Z rep2: −0.08
Z socre Rep2: −0.75
SpCas9 eGFP disruption Rep2: 60.83

COc1ccc(Cc2nnc3sc(-c4ccccc4OC)nn23)cc1 [Compound D727-0159]
Normalized Z rep1: −0.57
Z score Rep1: −4.09
SpCas9 eGFP disruption Rep1: 53.496
Normalized Z rep2: −0.23
Z socre Rep2: −2.11
SpCas9 eGFP disruption Rep2: 56.714

Cc1nc2ccccc2n1Cc1nnc2sc(-c3cccnc3)nn12 [Compound D727-0182]
Normalized Z rep1: −0.45
Z score Rep1: −3.22
SpCas9 eGFP disruption Rep1: 56.36
Normalized Z rep2: 0.14
Z socre Rep2: 1.30
SpCas9 eGFP disruption Rep2: 67.01

Fc1cccc(-c2nnc3sc(CCCc4ccccc4)nn23)c1 [Compound D727-0404]
Normalized Z rep1: −0.14
Z score Rep1: −0.99
SpCas9 eGFP disruption Rep1: 63.741
Normalized Z rep2: −0.34
Z socre Rep2: −3.13
SpCas9 eGFP disruption Rep2: 53.633

Brc1cccc(-c2nn3c(-c4ccccn4)nnc3s2)c1 [Compound D727-0489]
Normalized Z rep1: −0.24
Z score Rep1: −1.76
SpCas9 eGFP disruption Rep1: 61.183
Normalized Z rep2: −0.06
Z socre Rep2: −0.58
SpCas9 eGFP disruption Rep2: 61.347

Clc1ccccc1OCc1nn2c(-c3ccccn3)nnc2s1 [Compound D727-0524]
Normalized Z rep1: −0.39
Z score Rep1: −2.83
SpCas9 eGFP disruption Rep1: 57.663
Normalized Z rep2: −0.16
Z socre Rep2: −1.47
SpCas9 eGFP disruption Rep2: 58.659

c1ccc(-c2nnc3sc(-c4ccc5c(c4)OCO5)nn23)nc1 [Compound D727-0536]
Normalized Z rep1: −0.16
Z score Rep1: −1.18
SpCas9 eGFP disruption Rep1: 63.106
Normalized Z rep2: −0.09
Z socre Rep2: −0.86
SpCas9 eGFP disruption Rep2: 60.482

COc1ccc(CCc2nnc3sc(-c4ccncc4)nn23)cc1OC [Compound D727-0712]
Normalized Z rep1: −0.16
Z score Rep1: −1.13
SpCas9 eGFP disruption Rep1: 63.284
Normalized Z rep2: −0.29
Z socre Rep2: −2.66
SpCas9 eGFP disruption Rep2: 55.062

Cc1nn(-c2ccccc2)c(C)c1CCc1nnc2sc(-c3ccccc3F)nn12 [Compound D727-0713]
Z score Rep1: 0.38
SpCas9 eGFP disruption Rep1 [1]: 68.26
Normalized Z rep1 [2]: 0.05
Z socre Rep2: 1.08
SpCas9 eGFP disruption Rep2 [1]: 66.347
Normalized Z rep2 [2]: 0.12

COc1ccc(-c2nn3c(-c4ccc5ccccc5n4)nnc3s2)cc1OC [Compound D727-0743]
Normalized Z rep1: −0.03
Z score Rep1: −0.23
SpCas9 eGFP disruption Rep1: 66.254
Normalized Z rep2: −0.13
Z socre Rep2: −1.19
SpCas9 eGFP disruption Rep2: 59.503

CN(C)c1cccc(-c2nn3c(-c4ccc5ccccc5c4)nnc3s2)c1 [Compound D727-0754]
Normalized Z rep1: −0.15
Z score Rep1: −1.06
SpCas9 eGFP disruption Rep1: 63.517
Normalized Z rep2: −0.59
Z socre Rep2: −5.54
SpCas9 eGFP disruption Rep2: 46.376

CN(C)c1ccc(-c2nn3c(-c4ccc5ccccc5n4)nnc3s2)cc1 [Compound D727-0755]
Normalized Z rep1: −0.11
Z score Rep1: −0.83
SpCas9 eGFP disruption Rep1: 64.271
Normalized Z rep2: −0.09
Z socre Rep2: −0.79
SpCas9 eGFP disruption Rep2: 60.694

Cc1nn(-c2ccccc2)c(C)c1CCc1nn2c(-c3cccc(F)c3)nnc2s1 [Compound D727-0828]
Normalized Z rep1: −0.36
Z score Rep1: −2.61
SpCas9 eGFP disruption Rep1: 58.376
Normalized Z rep2: −0.14
Z socre Rep2: −1.34
SpCas9 eGFP disruption Rep2: 59.045

Cc1nn(-c2ccccc2)c(C)c1CCc1nn2c(-c3ccncc3)nnc2s1 [Compound D727-0837]
Normalized Z rep1: −0.15
Z score Rep1: −1.06
SpCas9 eGFP disruption Rep1: 63.496
Normalized Z rep2: −0.11
Z socre Rep2: −1.05
SpCas9 eGFP disruption Rep2: 59.923

Cc1nn(-c2ccccc2)c(C)c1CCc1nn2c(-c3cnccn3)nnc2s1 [Compound D727-0838]
Normalized Z rep1: −0.12
Z score Rep1: −0.86
SpCas9 eGFP disruption Rep1: 64.17
Normalized Z rep2: −0.21
Z socre Rep2: −1.92
SpCas9 eGFP disruption Rep2: 57.281

Fc1ccc(-c2nn3c(-c4ccncc4)nnc3s2)cc1Br [Compound D727-0883]
Normalized Z rep1: −0.13
Z score Rep1: −0.93
SpCas9 eGFP disruption Rep1: 63.924
Normalized Z rep2: −0.09
Z socre Rep2: −0.88
SpCas9 eGFP disruption Rep2: 60.422

Fc1ccc(-c2nn3c(-c4cnccn4)nnc3s2)cc1Br [Compound D727-0884]
Normalized Z rep1: −0.16
Z score Rep1: −1.16
SpCas9 eGFP disruption Rep1: 63.178
Normalized Z rep2: −0.23
Z socre Rep2: −2.10
SpCas9 eGFP disruption Rep2: 56.742

Clc1cccc(-c2nnc3sc(-c4ccc5ccccc5n4)nn23)c1 [Compound D727-0890]
Normalized Z rep1: −0.17
Z score Rep1: −1.24
SpCas9 eGFP disruption Rep1: 62.913
Normalized Z rep2: −0.22
Z socre Rep2: −2.01
SpCas9 eGFP disruption Rep2: 57.037

Fc1cccc(-c2nnc3sc(-c4ccc5ccccc5n4)nn23)c1 [Compound D727-0892]
Normalized Z rep1: −0.28
Z score Rep1: −2.03
SpCas9 eGFP disruption Rep1: 60.296
Normalized Z rep2: −0.34
Z socre Rep2: −3.13
SpCas9 eGFP disruption Rep2: 53.657

NC(=O)c1sc(=S)n2c1[nH]c(=O)c1cc(Cl)ccc12 [Compound F083-0005]
Normalized Z rep1: −0.23
Z score Rep1: −1.66
SpCas9 eGFP disruption Rep1: 61.541
Normalized Z rep2: −0.12
Z socre Rep2: −1.09
SpCas9 eGFP disruption Rep2: 59.801

O=C(NCC1CCCO1)c1sc(=S)n2c1[nH]c(=O)c1cc3c(cc12)OCO3 (stereo not drawn) [Compound F083-0416]
Normalized Z rep1: −0.32
Z score Rep1: −2.28
SpCas9 eGFP disruption Rep1: 59.472
Normalized Z rep2: −0.05
Z socre Rep2: −0.49
SpCas9 eGFP disruption Rep2: 61.595
